Source: US20260207450A1, “ANTI-DANDRUFF COMPOSITIONS” (Firmenich SA, priority 2022, published 2026)
Values after ≈ are worked out from the molar mass of the structure shown.

Legend:
M. globosa ATCC MYA-4612 = test: Disc-diffusion assay, perfumery materials in DMSO, M. globosa; assay type: cell-based, Malassezia globosa; conditions: for zone of inhibition at 0.2 % / zone of inhibition at 1 % / zone of inhibition at 2 %: Malassezia globosa, 144 h; for Inhibition zone (mm) M. globosa: 20 μL on 6 mm disc, 6 days, NI means no inhibition zone
Procedure: (§1) Anti-Malassezia effect of perfumery materials in solvent in DMSO was determined using disc-diffusion assay, based on the method of J Mycol Infect 2018: 23: 91-98. In brief, working cultures of Malassezia strains were prepared from −80 C stock culture on mDixon agar plate (for M. furfur DSM 6170) or mLN agar plate (for M. restricta ATCC MYA-4611 and M. globosa ATCC MYA-4612), and cells were suspended in 0.9% saline, and spread onto mDixon or mLN agar surface to prepare lawn plate. Test samples solutions are prepared in DMSO to final concentrations of 0.2%, 1% or 2%. Discs (Whatman, 6 mm in diameter) were placed on inoculated agar plates with each Malassezia strains respectively, including M. furfur DSM 6170, M. restricta ATCC MYA-4611, and M. globosa ATCC MYA-4612. Aliquots (20 μL) of each sample solution was added to each disc. Agar plates were incubated at 30° C. for 3 days for M. furfur DSM 6170, and 6 days for M. restricta ATCC MYA-4611, and M. globosa ATCC MYA-4612. After incubation, diameters of the clear inhibition zones around the discs were measured. Inhibition zone greater than 6 mm are regarded as having anti-Malassezia effect.

[1] = test system: M. restricta ATCC MYA-4611; test: Disc-diffusion assay, perfumery materials in DMSO, M. restricta; assay type: cell-based, Malassezia restricta; conditions: for zone of inhibition at 0.2 % / zone of inhibition at 1 % / zone of inhibition at 2 %: Malassezia restricta, 144 h; for Inhibition zone (mm) M. restricta: 20 μL on 6 mm disc, 6 days, NI means no inhibition zone
Procedure: as §1

M. restricta = test: Disc-diffusion assay, combinations with piroctone olamine (PO) in DMSO, M. restricta; assay type: cell-based, Malassezia restricta; conditions: 4 days, ratio greater than 1.0 = boosting effect
Procedure: Anti-Malassezia effect of combinations of PO and perfumery materials in solvent DMSO against M. restricta was determined using disc-diffusion assay as described above. Aliquots (20 μL) of each sample solution was added to each disc. Agar plates were incubated at 30° C. for 4 days. After incubation, diameters of the clear inhibition zones around the discs were measured. Ratio of inhibition zone diameter of each combination to that of PO only were calculated. […] Anti-Malassezia effect of combinations of PO and perfumery raw materials mixtures in solvent DMSO was determined using disc-diffusion assay, as described above. Aliquots (20 μL) of each sample solution was added to each disc. Agar plates were incubated at 30° C. for 4 days. After incubation, diameters of the clear inhibition zones around the discs were measured. Ratio of inhibition zone diameter of each combination to that of PO only were calculated.

[2] = test system: Malassezia furfur DSM 6170; test: MIC assay on Malassezia furfur DSM 6170 (resazurin); assay type: cell-based; conditions: 30° C., 48 h aerobically, dilutions 29 to 10000 ppm; for MIC: Malassezia furfur, DSM6170
Procedure: The MIC assay for Malassezia furfur DSM 6170 was modified based on the method in Journal of Clinical Microbiology 2017, Vol 55: 1883-1893. In brief, working culture was prepared from stock cultures stored at −80° C. to obtain a cell suspension as the inoculum. Serial dilutions of samples, 29 to 10000 ppm, were tested to determine the MIC values for growth of Malassezia furfur DSM 6170 after at 30° C. for 48 h aerobically. Resazurin was used as growth indicator.
(§2) A total of 26 perfumery materials were examined for an inhibition effect on Malassezia furfur and Staphylococcus aureus.

[3] = test system: Staphylococcus aureus ATCC 6538; test: MIC assay on Staphylococcus aureus ATCC 6538; assay type: cell-based; conditions: TSB, 37° C., 24 h aerobically, dilutions 29 to 10000 ppm; for MIC: Staphylococcus aureus, ATCC6538, read-out: MIC (ppm) S. aureus
Procedure: MIC assay for Staphylococcus aureus ATCC 6538 is based on Clinical Laboratory Standard Institute: CLSI/NCCLS M07-A8. Cell suspension of working cultures of S. aureus was prepared following the instructions of culture provider ATCC, USA.
as §2

M. furfur DSM 6170 = test: Disc-diffusion assay, perfumery materials in DMSO, M. furfur; assay type: cell-based, Malassezia furfur; conditions: for zone of inhibition at 2 %: Malassezia furfur, DSM6170, 72 h
Procedure: as §1

Compound	zone of inhibition at 0.2 % (M. globosa ATCC MYA-4612) [mm]	zone of inhibition at 0.2 % [1] [mm]	zone of inhibition at 2 % [1] [mm]	MIC [2] [µg/mL]	MIC [3] [µg/mL]	further results
C=CCCCCCCCCC=O [Mix 10-undecenal, 10-undecenal]	7.1	6.5				zone of inhibition at 1 % (M. globosa ATCC MYA-4612): 14.1 mm; zone of inhibition at 1 % [1]: 12.7 mm
CC(C)(C)c1ccc(CCC=O)cc1 [cyclamen propanal, 3-(4-tert-butylphenyl)propanal]	6.3	6.6	12.3			zone of inhibition at 2 % (M. globosa ATCC MYA-4612): 7.9 mm
CCCCCCCCCC(=O)O [decanoic acid]						Ratio of inhibition zone diameter (1% PRM + 0.35% PO) to 0.35% PO (M. restricta): 1.1
CCCCCCC1CCCC(=O)O1 (centres unmarked) [delta-undecalactone, 6-hexyltetrahydro-2H-pyran-2-one]	6.4	6.1		333 (≈ 1810 µM)	293 (≈ 1590 µM)	
CCOc1cc(C=O)ccc1O [ethyl vanillin, 3-ethoxy-4-hydroxybenzaldehyde]			19.5	500 (≈ 3010 µM)	2670 (≈ 16000 µM)	
c1ccc2[nH]ccc2c1 [indole]	6.3			259 (≈ 2210 µM)	693 (≈ 5920 µM)	zone of inhibition at 1 % (M. globosa ATCC MYA-4612): 15.2 mm
COC(=O)c1c(C)cc(O)c(C)c1O [methyl 2,4-dihydroxy-3,6-dimethylbenzoate]	7.4	6.3	12	290 (≈ 1480 µM)	111 (≈ 566 µM)	zone of inhibition at 2 % (M. globosa ATCC MYA-4612): 9.2 mm; zone of inhibition at 2 % (M. furfur DSM 6170): 7 mm
CCCCCCC#CC(=O)OC [methyl octine carbonate, methyl 2-nonynoate]		6.4				zone of inhibition at 1 % (M. globosa ATCC MYA-4612): 10.3 mm; zone of inhibition at 1 % [1]: 6.7 mm
CCCCCCCCC(=O)O [nonanoic acid]						Ratio of inhibition zone diameter (0.5% PRM + 0.1% PO) to 0.1% PO (M. restricta): 1.1; Ratio of inhibition zone diameter (1% PRM + 0.35% PO) to 0.35% PO (M. restricta): 1.2
CCCCCCCC(=O)O [octanoic acid]						Ratio of inhibition zone diameter (1% PRM + 0.35% PO) to 0.35% PO (M. restricta): 1.1
CC(C)C1CCC(CO)CC1 (centres unmarked) [p-menthan-7-ol]	6.5	6.7		222 (≈ 1420 µM)	625 (≈ 4000 µM)	zone of inhibition at 2 % (M. furfur DSM 6170): 6.3 mm
COc1ccc(C=O)cc1 [para-anisaldehyde, 4-methoxybenzaldehyde]			13.4	500 (≈ 3670 µM)		
cyclopropylmethyl (3Z)-3-hexenoate + cyclopropylmethyl (3E)-3-hexenoate						Inhibition zone (mm) M. globosa (M. globosa ATCC MYA-4612; 0.2% in DMSO): 8.7 mm; Inhibition zone (mm) M. globosa (M. globosa ATCC MYA-4612; 2% in DMSO): 13.0 mm; Inhibition zone (mm) M. restricta ([1]; 0.2% in DMSO): 6.3 mm; Inhibition zone (mm) M. restricta ([1]; 2% in DMSO): 11.0 mm; Inhibition zone (mm) M. furfur (M. furfur DSM 6170; 2% in DMSO, 20 μL on 6 mm disc, 3 days, NI means no inhibition zone): 8.0 mm; MIC (ppm) M. furfur [2]: 333 ppm; MIC (ppm) S. aureus [3]: 625 ppm
